Results on 5 compounds are retold here after US20110033390A1, “MR IMAGING AGENT OR MEDIUM COMPRESSING HYPERPOLARISED 13C ALANINE AND METHODS OF IMAGING WHEREIN SUCH AN IMAGING MEDIUM IS USED” (priority 2008, published 2011).

For data set [1], the system named is mouse liver. As to the kind of experiment: In vivo 13C-MR spectroscopy in mice (liver). Conditions: C57B1/6 mouse, surface coil over liver. The procedure: 175 μl of an imaging medium which was prepared as described in Example 1 was injected into a C57B1/6 mouse over a time period of 6 s. The ^13C1-alanine concentration in said imaging medium was approximately 55 mM. A surface coil (tuned for proton and carbon) was positioned over the liver of the animal and ^13C-MR spectroscopy was carried out in a 9.4 T magnet. A dynamic set of ^13C-MR spectra (in total 15) was acquired every 5 s with a 30 degree RF pulse. This experiment confirmed that ^13C1-lactate is building up during the time course of the experiment, see FIG. 3.

Data set [2] in a line: Liquid state polarisation after dissolution and neutralization, by liquid state 13C-NMR at 400 MHz. It counts as physicochemical. The procedure:
In a similar way, the level of polarisation for hyperpolarised ^13C-alanine in solution may be determined by liquid state NMR measurements. Again the signal intensity of the hyperpolarised ^13C-alanine in solution is compared with the signal intensity of the ^13C-alanine in solution before polarisation. The level of polarisation is then calculated from the ratio of the signal intensities of ^13C-alanine before and after polarisation.
After 150 minutes of dynamic nuclear polarisation, the obtained frozen polarised solution was dissolved in a dissolution medium containing 6 ml of a phosphate buffer (20 mM, pH 6.8, 100 mg/l EDTA), aqueous NaOH (27 μl 12 M solution, 1 eq) and 30 mg NaCl. The pH of the final liquid was 6.8.
Liquid state polarisation was determined by liquid state ^13C-NMR at 400 MHz to be 35%.
After 120 minutes of dynamic nuclear polarisation, the obtained frozen polarised solution was dissolved in a dissolution medium containing 6 ml BIS TRIS (40 mM, pH 6, 100 mg/l EDTA, 0.9% NaCl). The pH of the final solution containing the dissolved composition was 6.
Liquid state polarisation was determined by liquid state ^13C-NMR at 400 MHz to be 16%.

Data set [3] concerns Hep-G2 cells. Description: In vitro 13C-MR spectroscopy with hyperpolarised 13C1-alanine imaging medium. Format: cell-based, human. Particulars: 3 mM 13C1-alanine, 10x10^6 Hep-G2 cells, 20 s incubation. The procedure:
An imaging medium was prepared as described in Example 1 and 100 μl of the imaging medium (3 mM ^13C1-alanine) was mixed into 10×10^6 Hep-G2 cells (human hepatocellular carcinoma cells). A single ^13C-MR spectrum was acquired after a total of 20 s incubation time with a 90 degree RF pulse. ^13C1-pyruvate and ^13C1-lactate were identified in the spectrum. The conversion of alanine was approximately 0.1% to both lactate and pyruvate.

The test system of data set [4] is mice (whole body). Description: In vivo 13C-MR spectroscopy in mice (whole body). Also on record: species or system mouse. The procedure:
175 μl of an imaging medium which was prepared as described in Example 1 was injected into a C57B1/6 mouse over a time period of 6 s. The ^13C1-alanine concentration in said imaging medium was approximately 50 mM and 3 animals were used in the experiment. A rat size whole body coil (tuned for proton and carbon) was placed over the animal and ^13C-MR spectroscopy was carried out in a 9.4 T magnet. A dynamic set of ^13C-MR spectra (in total 5) was acquired every 5 s with a 15 degree RF pulse. Metabolism was seen to ^13C1-lactate (approximately 1% of the ^13C1-lactate signal), see FIG. 1. […] The following decay time was calculated from the MR spectra: ^13C1-lactate 33 s. […] It is thus favourable to detect the lactate signal which due to its slow decay provides a larger MR detection window.

The test system of data set [5] is mouse heart. Description: In vivo 13C-MR spectroscopy in mice (heart). The procedure: 175 μl of an imaging medium which was prepared as described in Example 1 was injected into a C57B1/6 mouse over a time period of 6 s. The ^13C1-alanine concentration in said imaging medium was about 55 mM. A surface coil (tuned for proton and carbon) was positioned over the heart of the animal and ^13C-MR spectroscopy was carried out in a 9.4 T magnet. A dynamic set of ^13C-MR spectra (in total 10) was acquired every 5 s with a 30 degree RF pulse. […] The lactate seen in the experiment is expected to originate from pyruvate. […] Comparing Examples 5 and 6, a different metabolic profile is obtained for the liver and the heart showing that ^13C-alanine is a tissue specific metabolic marker.

The nature of data set [6]: Solid state polarisation after DNP, by solid state 13C-NMR. Format: physicochemical. Conditions: DNP at 1.2 K, 3.35 T, microwave 93.90 GHz; trityl radical and Gd-chelate present. The source says: The level of polarisation may for instance be determined by solid state ^13C-NMR measurements in solid hyperpolarised ^13C-alanine, e.g. solid hyperpolarised ^13C-alanine obtained by dynamic nuclear polarisation (DNP) of ^13C-alanine. The solid state ^13C-NMR measurement preferably consists of a simple pulse-acquire NMR sequence using a low flip angle. The signal intensity of the hyperpolarised ^13C-alanine in the NMR spectrum is compared with signal intensity of ^13C-alanine in a NMR spectrum acquired before the polarisation process. The level of polarisation is then calculated from the ratio of the signal intensities of before and after polarisation.
The probe is inserted into the probe-retaining container, submerged in the liquid helium and irradiated with microwaves, preferably at a frequency of about 94 GHz at 200 mW. The level of polarisation may for instance be monitored by solid state ^13C-NMR measurements of the ^13C-nuclei in the frozen composition comprising the hyperpolarised sample. […] The level of polarisation is then calculated from the ratio of the signal intensities of before and after polarisation.
32.5 mg (0.258 mmol) of the ^13C1-alaninium chloride obtained in Example 1a was added to 42 mg of a stock solution in a micro test tube. […] Polarisation was followed by solid state ^13C-NMR and the solid state polarisation was determined to be 40%. […]

The conditions of data set [7]: mouse, in vivo. The procedure:
In another preferred embodiment, the imaging medium comprising hyperpolarised ^13C-alanine is administered repeatedly, thus allowing dynamic studies. This is a further advantage of the method according to the invention compared to other MR detection methods using conventional MR contrast agents which—in higher doses—may show toxic effects.

Data set [8] in a line: Relaxation / loss of polarisation in solution as a function of pH. It counts as physicochemical. Conditions: solutions with a pH above 7. From the text: If the sample used in the composition for DNP is a carboxylate salt of ^13C-alanine, said salt needs to be converted to the free ^13C-alanine by reaction (neutralization) with an acid. […] Thus, if a carboxylate salt of ^13C-alanine was used in the composition for DNP, the liquefaction and neutralization of the solid composition comprising the hyperpolarised carboxylate salt of ^13C-alanine needs to be carried out carefully in order to avoid loss of polarisation. Neutralization may be carried out simultaneously or subsequently to the liquefaction, for the latter it must be taken care that neutralization is carried out quickly and directly after liquefaction. Thus, in one embodiment the liquefaction is carried out by melting or dissolution of the frozen composition and neutralization with an acid is quickly carried out after the frozen composition was dissolved/melted. In another embodiment, liquefaction and neutralization are carried out simultaneously, e.g. by dissolving the frozen composition in a dissolution medium which is or contains an acid that is capable of converting the hyperpolarised carboxylate salt of ^13C-alanine to ^13C-alanine. In yet another embodiment the acid is added to the probe-retaining cup which contains the frozen composition in the dynamic nuclear polarisation process. […] The most preferred acid is HCl since it is cheap and readily available.

Turning to `CC(N)[13C](=O)O` (stereo not drawn) [^13C1-alanine], in data set [1] (175 µl of approx. 55 mM), the “13C1-lactate signal over the time course” value is on record as “building up”. The “13C1-pyruvate and 13C1-bicarbonate signals” value in data set [1] (15 combined spectra) is “could be detected”. For the same compound, the liquid state polarisation in data set [2] (Example 1c: from 13C1-alaninium chloride after 150 min DNP, dissolved in phosphate buffer/NaOH, final pH 6.8) came out at 35%; in data set [2] (Example 2: from sodium 13C1-2-amino-propanoate after 120 min DNP, dissolved in BIS TRIS, HCl neutralization, final pH 6), 16%. Besides, the “conversion of alanine to lactate” value in data set [3] is given as “approximately 0.1%”. The “conversion of alanine to pyruvate” value in data set [3] is given as “approximately 0.1%”. In addition, the “metabolism to 13C1-lactate (relative signal)” value in data set [4] (C57B1/6 mouse, 175 µl of approx. 50 mM injected over 6 s, whole body coil, 9.4 T) is “approximately 1%”. Besides, the results for the pyruvate signal result in data set [4] (mouse whole body) and in data set [5] (mouse heart) were “No pyruvate signal could be detected” and “absence of pyruvate”, respectively. In data set [5] (C57B1/6 mouse, 175 µl of about 55 mM, surface coil over heart), the “build-up of 13C1-lactate” value is “noteworthy slow”.
Turning to `C[C@H](N)[13C](=O)O.Cl` [^13C1-alaninium chloride], the solid state polarisation in data set [6] is listed as 40%.
On to `C[C@H](O)[13C](=O)O` [^13C1-lactate], for which the “decay time calculated from the MR spectra” value in data set [4] (13C1-lactate signal after injection of hyperpolarised 13C1-alanine, mouse whole body) is listed as 33 s.
On to `CC(N)C(=O)O` (stereo not drawn) [hyperpolarised ^13C-alanine, 2-amino-propanoic acid], for which the tolerability result in data set [7] is “well tolerated”. In data set [8], the “relaxation rate / loss of polarisation” value is recorded as “high relaxation rates”.
As for `CC(N)[13C](=O)[O-].[Na+]` (stereo not drawn) [sodium ^13C1-2-amino-propanoate], in data set [6], the solid state polarisation turned out to be 18%.
